Measurements as given in ChEMBL document CHEMBL1138773, “Design and synthesis of aryl diphenolic azoles as potent and selective estrogen receptor-beta ligands” (J Med Chem, 2004).

Legend:
[1] = target: Estrogen receptor beta (Homo sapiens, UniProt Q92731)
[2] = target: T1, Estrogen receptor (Homo sapiens, UniProt P03372)
T1 sequence (P03372 whole entry): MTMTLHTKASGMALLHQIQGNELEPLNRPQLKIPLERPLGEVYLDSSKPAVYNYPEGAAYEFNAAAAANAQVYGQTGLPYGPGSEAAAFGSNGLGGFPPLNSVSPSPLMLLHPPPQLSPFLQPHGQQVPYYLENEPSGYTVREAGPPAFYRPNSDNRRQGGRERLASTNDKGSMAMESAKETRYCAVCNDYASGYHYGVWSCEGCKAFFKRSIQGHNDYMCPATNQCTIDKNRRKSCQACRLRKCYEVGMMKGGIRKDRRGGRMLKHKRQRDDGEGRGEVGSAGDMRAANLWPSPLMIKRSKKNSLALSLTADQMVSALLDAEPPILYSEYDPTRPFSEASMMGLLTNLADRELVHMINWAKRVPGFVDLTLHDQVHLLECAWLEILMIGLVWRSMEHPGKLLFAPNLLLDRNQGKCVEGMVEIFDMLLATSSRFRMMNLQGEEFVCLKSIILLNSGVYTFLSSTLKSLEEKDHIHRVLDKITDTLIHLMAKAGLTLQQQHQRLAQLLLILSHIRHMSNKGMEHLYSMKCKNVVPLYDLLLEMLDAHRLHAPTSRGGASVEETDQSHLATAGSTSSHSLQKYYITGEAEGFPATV

[3] = target: Estrogen receptor beta (Rattus norvegicus, UniProt Q62986)
Sequence of Estrogen receptor beta (Rattus norvegicus, UniProt Q62986) (Q62986 whole entry): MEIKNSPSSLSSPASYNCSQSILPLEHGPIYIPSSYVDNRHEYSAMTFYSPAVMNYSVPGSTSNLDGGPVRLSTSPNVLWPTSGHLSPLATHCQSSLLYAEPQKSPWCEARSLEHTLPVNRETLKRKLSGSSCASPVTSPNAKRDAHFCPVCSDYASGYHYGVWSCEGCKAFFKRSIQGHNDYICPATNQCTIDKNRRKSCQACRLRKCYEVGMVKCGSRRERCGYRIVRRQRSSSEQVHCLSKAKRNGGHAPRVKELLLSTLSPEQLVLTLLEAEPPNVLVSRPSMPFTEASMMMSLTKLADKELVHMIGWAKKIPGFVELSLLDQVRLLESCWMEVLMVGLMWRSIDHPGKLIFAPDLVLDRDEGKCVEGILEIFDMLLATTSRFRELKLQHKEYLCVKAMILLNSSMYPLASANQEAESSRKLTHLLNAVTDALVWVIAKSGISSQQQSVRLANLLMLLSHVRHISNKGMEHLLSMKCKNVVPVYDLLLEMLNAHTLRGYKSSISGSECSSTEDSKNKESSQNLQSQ

[4] = target: T2, Estrogen receptor (Rattus norvegicus, UniProt P06211)
T2 sequence (P06211 whole entry): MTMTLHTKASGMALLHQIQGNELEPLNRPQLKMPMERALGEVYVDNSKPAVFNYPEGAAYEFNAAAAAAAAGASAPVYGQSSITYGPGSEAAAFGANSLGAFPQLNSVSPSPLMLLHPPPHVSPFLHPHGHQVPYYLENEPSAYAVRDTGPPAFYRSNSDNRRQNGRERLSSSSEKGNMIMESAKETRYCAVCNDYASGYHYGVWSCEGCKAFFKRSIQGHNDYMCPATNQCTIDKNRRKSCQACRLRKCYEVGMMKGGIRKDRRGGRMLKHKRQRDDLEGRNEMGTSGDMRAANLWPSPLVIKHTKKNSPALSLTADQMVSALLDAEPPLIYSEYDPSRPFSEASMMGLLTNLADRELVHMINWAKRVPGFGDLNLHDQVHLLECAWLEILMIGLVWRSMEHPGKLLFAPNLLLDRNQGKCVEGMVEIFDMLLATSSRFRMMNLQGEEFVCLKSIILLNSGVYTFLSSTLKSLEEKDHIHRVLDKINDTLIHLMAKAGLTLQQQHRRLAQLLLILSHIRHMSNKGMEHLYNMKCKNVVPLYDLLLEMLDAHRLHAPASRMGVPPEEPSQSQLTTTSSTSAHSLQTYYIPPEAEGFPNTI

[5] = target: T3, Estrogen receptor (Mus musculus, UniProt P19785)
T3 sequence (P19785 whole entry): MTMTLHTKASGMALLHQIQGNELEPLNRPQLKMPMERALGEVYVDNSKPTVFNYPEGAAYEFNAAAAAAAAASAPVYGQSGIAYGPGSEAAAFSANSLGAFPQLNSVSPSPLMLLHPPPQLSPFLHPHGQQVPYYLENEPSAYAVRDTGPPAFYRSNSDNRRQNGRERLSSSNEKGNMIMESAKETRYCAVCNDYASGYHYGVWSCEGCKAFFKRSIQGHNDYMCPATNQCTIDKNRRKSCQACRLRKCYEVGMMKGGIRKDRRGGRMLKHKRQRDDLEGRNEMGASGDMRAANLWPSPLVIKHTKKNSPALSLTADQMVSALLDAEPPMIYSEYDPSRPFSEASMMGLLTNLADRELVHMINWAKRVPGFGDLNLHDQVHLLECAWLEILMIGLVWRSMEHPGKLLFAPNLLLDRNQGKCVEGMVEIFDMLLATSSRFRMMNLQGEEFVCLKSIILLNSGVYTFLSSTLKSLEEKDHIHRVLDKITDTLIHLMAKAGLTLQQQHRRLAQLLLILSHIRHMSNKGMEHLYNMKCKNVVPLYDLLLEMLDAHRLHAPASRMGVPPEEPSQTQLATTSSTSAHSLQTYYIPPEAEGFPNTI

[6] = target: Estrogen receptor beta (Mus musculus, UniProt O08537)
Sequence of Estrogen receptor beta (Mus musculus, UniProt O08537) (O08537 whole entry): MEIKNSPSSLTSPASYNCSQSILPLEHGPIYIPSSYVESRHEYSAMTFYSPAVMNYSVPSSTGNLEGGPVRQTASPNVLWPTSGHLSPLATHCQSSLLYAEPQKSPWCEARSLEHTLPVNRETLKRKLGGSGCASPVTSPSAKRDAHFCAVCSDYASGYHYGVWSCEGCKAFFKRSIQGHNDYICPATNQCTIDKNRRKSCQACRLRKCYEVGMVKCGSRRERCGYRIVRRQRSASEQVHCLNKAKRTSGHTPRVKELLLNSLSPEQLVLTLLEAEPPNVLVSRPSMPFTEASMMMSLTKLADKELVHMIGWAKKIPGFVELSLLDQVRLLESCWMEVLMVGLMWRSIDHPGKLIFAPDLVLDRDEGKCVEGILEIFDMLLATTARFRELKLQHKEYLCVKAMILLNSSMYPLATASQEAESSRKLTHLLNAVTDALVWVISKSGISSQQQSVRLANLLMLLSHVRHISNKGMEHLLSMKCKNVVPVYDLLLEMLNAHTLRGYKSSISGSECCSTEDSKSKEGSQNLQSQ

[7] = organism: Mus musculus; settings: dose 50 mg/kg
Description: Weight of mouse uterine when treated with compound at 50 mg/kg dose was determined

[8] = target: Estrogen receptor beta (Rattus norvegicus) (UniProt Q62986); settings: Prostate gland
Sequence of Estrogen receptor beta (Rattus norvegicus) (Q62986 whole entry): as the sequence (Q62986 whole entry) above

[9] = organism: Rattus norvegicus; test: Effect of combination of compound and PPT on rat vasomotor instability in terms of tail skin temperature change 15 min after naloxone injection; assay type: functional
[10] = target: Estrogen receptor beta (Rattus norvegicus) (UniProt Q62986); settings: Prostate gland; remark: listed apart in the source
[11] = test system: Rattus norvegicus; test: Trabecular bone mineral density in ovariectomized rat when treated with compound at 10 mg/kg dose; assay type: functional, Trabecula
[12] = test system: Rattus norvegicus; test: Total bone mineral density in ovariectomized rat when treated with compound at 10 mg/kg dose; assay type: functional

Sequence of Estrogen receptor beta (Homo sapiens, UniProt Q92731) (Q92731 whole entry): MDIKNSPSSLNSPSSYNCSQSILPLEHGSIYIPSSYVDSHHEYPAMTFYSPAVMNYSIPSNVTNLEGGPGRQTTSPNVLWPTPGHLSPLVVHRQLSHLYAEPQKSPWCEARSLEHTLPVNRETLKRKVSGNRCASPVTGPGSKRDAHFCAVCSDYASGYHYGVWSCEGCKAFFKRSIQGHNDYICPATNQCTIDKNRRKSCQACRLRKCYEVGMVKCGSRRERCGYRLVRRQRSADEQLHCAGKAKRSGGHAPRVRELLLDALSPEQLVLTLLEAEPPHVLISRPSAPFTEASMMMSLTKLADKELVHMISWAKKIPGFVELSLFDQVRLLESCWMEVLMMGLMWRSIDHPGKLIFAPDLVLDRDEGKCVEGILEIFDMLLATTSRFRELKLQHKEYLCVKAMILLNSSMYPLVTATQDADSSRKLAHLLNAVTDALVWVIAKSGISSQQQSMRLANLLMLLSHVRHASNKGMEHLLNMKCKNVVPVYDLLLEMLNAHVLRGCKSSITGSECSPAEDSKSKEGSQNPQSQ

| Compound | IC50 [1] [nM] | IC50 [2] [nM] | other results |
| --- | --- | --- | --- |
| Oc1ccc(-c2noc3ccc(O)cc23)c(O)c1 | 138 | 4070 |  |
| Oc1ccc(-c2noc3cc(O)ccc23)cc1 |  |  | IC50 [3]: 36 nM; IC50 [4]: 716 nM; IC50 [5]: 1090 nM; IC50 [6]: 13 nM |
| C=CCc1cc(O)cc2nc(-c3ccc(O)cc3)oc12 | 13 | 727 | Weight [7]: 10 mg |
| Oc1ccc(-c2nc3cc(O)cc(/C=C\Br)c3o2)cc1 | 45 | 4650 |  |
| C=Cc1cc(O)cc2nc(-c3c(F)cc(O)cc3F)oc12 | 2.2 | 249 | Weight [7]: 10 mg |
| CC(C)C(=O)Nc1ccc([N+](=O)[O-])c(C(F)(F)F)c1 |  |  | Weight [8]: 15.2 mg |
| N#Cc1cc(O)cc2nc(-c3ccc(O)cc3)oc12 |  |  | IC50 [3]: 4 nM; IC50 [4]: 362 nM; Activity [9]: 2.7; IC50 [6]: 4.3 nM |
| N#Cc1cc(O)ccc1-c1noc2cc(O)ccc12 | 12 | 264 |  |
| O=Cc1cc(O)cc2nc(-c3ccc(O)cc3)oc12 |  |  | IC50 [3]: 29 nM; IC50 [4]: 2250 nM; IC50 [6]: 16.5 nM |
| Oc1ccc2c(-c3ccccc3O)noc2c1 |  | 3000 |  |
| Oc1ccc2nc(-c3cccc(O)c3O)oc2c1 |  | 2350 |  |
| O/N=C/c1cc(O)ccc1-c1noc2cc(O)ccc12 | 383 | 2390 |  |
| Oc1ccc2c(-c3nc4cc(F)c(O)cc4o3)cccc2c1 | 46 | 434 |  |
| COC(=O)c1cc(O)cc2nc(-c3ccc(O)cc3)oc12 | 356 | > 5000 |  |
| Oc1ccc(-c2noc3ccccc23)c(O)c1 | 718 | 6100 |  |
| C=Cc1cc(O)cc2nc(-c3ccc(O)cc3)oc12 |  | 447 |  |
| Oc1ccc2nc(-c3ccc(O)c(F)c3)oc2c1 |  | 8430 |  |
| Oc1ccc(-c2nc3cc(O)cc(/C=C\Br)c3o2)c(F)c1 | 16 | 196 |  |
| C=CCc1cc(O)cc2nc(-c3ccc(O)cc3F)oc12 | 3 | 98 |  |

| Compound | IC50 [1] [nM] | IC50 [2] [nM] | other results |
| --- | --- | --- | --- |
| COc1c(Br)c(O)c(Br)c2nc(-c3ccc(O)c(F)c3)oc12 | 64 | 559 |  |
| Oc1ccc(-c2nc3cc(O)ccc3o2)cc1 |  |  | IC50 [3]: 2.2 nM; IC50 [5]: 1630 nM; IC50 [6]: 9.9 nM |
| C=Cc1cc(O)cc2nc(-c3ccc(O)cc3C)oc12 | 27 | 1120 |  |
| Cc1cc(O)c2cccc(-c3nc4ccc(O)cc4o3)c2c1 | 6 | 163 |  |
| N#Cc1cc(O)cc2nc(-c3ccc(O)cc3F)oc12 | 2.4 | 138 |  |
| Oc1cc(Br)c2oc(-c3ccc(O)c(F)c3)nc2c1 |  |  | IC50 [3]: 2 nM; Weight [10]: 119 mg; IC50 [4]: 171 nM; IC50 [5]: 199 nM; Density [11]: 312.34 mg/cm3; Density [12]: 501.4 mg/cm3; IC50 [6]: 2.7 nM |
| C=Cc1cc(O)cc2nc(-c3ccc(O)cc3F)oc12 |  |  | Weight [7]: 10.3 mg |
| Oc1cc(/C=C\F)c2oc(-c3ccc(O)c(F)c3)nc2c1 | 3.2 | 376 | Weight [7]: 9.8 mg |
| CCCCOc1cc(-c2nc3ccc(O)cc3o2)ccc1O | 3660 | 6240 |  |
| C=Cc1cc(O)cc2nc(-c3cc(F)c(O)cc3F)oc12 | 66 | 4040 |  |
| N#CCc1cc(O)ccc1-c1noc2cc(O)ccc12 | 96 | 717 |  |
| C=Cc1cc(O)cc2nc(-c3ccc(O)c(F)c3)oc12 [PRINABEREL] |  |  | IC50 [3]: 3.14 nM; Weight [10]: 132 mg; IC50 [4]: 618 nM; IC50 [5]: 746 nM; IC50 [6]: 3.7 nM |
| Oc1ccc(-c2nc3ccc(O)cc3o2)cc1 |  |  | IC50 [3]: 20 nM; IC50 [4]: 821 nM; IC50 [5]: 1340 nM; IC50 [6]: 9.5 nM |
| Oc1ccc(-c2nc3cc(O)cc(Br)c3o2)cc1 |  |  | IC50 [3]: 1.2 nM; IC50 [4]: 132 nM; Activity [9]: 1.9; IC50 [5]: 132 nM; Density [11]: 287.56 mg/cm3; Density [12]: 525.51 mg/cm3; IC50 [6]: 1.7 nM |
| C/C=C\c1cc(O)cc2nc(-c3ccc(O)cc3)oc12 | 1.42 | 775 |  |
| O=C(O)c1cc(O)cc2nc(-c3ccc(O)cc3)oc12 | > 5000 | > 5000 |  |
| COc1cc(O)c(Br)c2nc(-c3ccc(O)c(F)c3)oc12 | 52 | 2670 |  |
| C/C=C\c1cc(O)cc2nc(-c3ccc(O)cc3F)oc12 | 23 | 539 |  |
